Laboratory results reported in patent publication US20030054029A1, “IIB/IIIA ANTAGONISTS CO-ADMINISTERED WITH ASPIRIN” (priority 1997, published 2003).
Several values for one entry are separate records, joined by “and”; a condition that tells them apart may be missing. Equal values may be shown once.

Experiments:
[1] = test system: occlusive thrombus in left circumflex coronary artery (LCCA); assay: Anesthetized canine model of coronary thrombosis (anodal current stimulation of the LCCA); assay type: in vivo, dog
Method: Sixty-six mongrel dogs of either sex weighing between 14 and 26 kg were anesthetized by intravenous administration of pentobarbital sodium solution (30 mg/kg). A supplemental dose of the anesthetic (65 to 130 mg) was administered as required. The dogs were endotracheally intubated and placed on a respirator (Biological Research Apparatus, Comerio-Varese, Italy) with the stroke volume adjusted to 20 ml/kg and a frequency of 12 breaths/minute. Peripheral arterial blood pressure was monitored with a pressure transducer (Micron Instruments, Simi Valley, Calif.) connected to a catheter placed in the right femoral artery. A catheter was inserted into the right femoral vein for withdrawing blood samples and another was inserted into the left jugular vein for administering intravenous fluids. A left thoracotomy was performed in the fifth intercostal space and the heart was suspended in a pericardial cradle. A 2 to 3-cm segment of the left circumflex coronary artery (LCCA) was isolated distal to the first diagonal branch. The small intervening coronary branches over the isolated segment were ligated. The artery was instrumented from proximal to distal with an ultrasonic flow probe, a stimulation electrode, and a Goldblatt clamp. The flow probe was connected to a Doppler flow meter (Crystal Biotech, Hopkinton, Mass.) in order to monitor the mean and the phasic LCCA blood flow velocities. The stimulation electrode and its placement in the LCCA and the methodology to induce an occlusive coronary thrombus are described in detail in Mickelson et al. Circulation, 1990; 81:617-627; Shebuski et al., Circulation, 1990; 82:169-177; and Tschopp et al., Coronary Artery Des., 1993; 4:809-817. Briefly, the needle tip of the electrode was inserted into the LCCA, ensuring its contact with the intraluminal surface of the vessel just under the Goldblatt clamp. The clamp was adjusted to reduce the peak reactive hyperemia following a 10-second period of total occlusion, without affecting the baseline mean LCCA blood flow velocity. Continuous recordings of blood pressure and LCCA blood flow velocity (mean and phasic) were obtained on a multichannel recorder (Gould Inc., Cleveland, Ohio).
Approximately 30 minutes after the preparation of the dogs, the study was continued by the administration of one of the treatments presented in Table 2.
The 0.6×SCa, 0.5×SCa and 0.4×SCa doses in Table 2 represent the reduced doses of the highest dose of SCa tested. Each dog was utilized only once. At 30 minutes, the stimulation electrode was then connected in series with a 12 K Ohms-112 K Ohms variable resistor to the positive terminal of a 9-V battery. The electrical circuit was completed by securing a needle electrode into a subcutaneous site and to the negative terminal of the battery. The anodal current delivered to the tip of the stimulation electrode was monitored and maintained at 250 μA. The number and the frequency of cyclic flow variations (CFV) that preceded the formation of an occlusive thrombus were recorded. CFV were observed as spontaneous shifts in mean and phasic LCCA blood flow velocity, with the sudden return of these variables to baseline. Proper positioning of the electrode in the LCCA was confirmed by visual inspection at the end of the experiment. Each experiment lasted for 180 minutes of anodal current unless the dog died after an occlusive thrombus was formed.

[2] = test system: Dog PRP platelet aggregation; assay: In-Vitro Platelet Aggregation in PRP (ADP-induced); assay type: cell-based; conditions: Canis lupus familiaris; ADP 50 um final concentration, dog platelet-rich plasma
Method: Healthy male or female dogs were fasted for 8 hours prior to drawing blood; then 30 ml whole blood was collected using a butterfly needle and 30 cc plastic syringe with 3 ml of 0.129 M buffered sodium citrate (3.8%). The syringe was rotated carefully as blood was drawn to mix the citrate. Platelet-rich plasma (PRP) was prepared by centrifugation at 975×g for 3.17 minutes at room temperature allowing the centrifuge to coast to a stop without braking. The PRP was removed from the blood with a plastic pipette and placed in a plastic capped, 50 mL Corning conical sterile centrifuge tube which was held at room temperature. Platelet poor plasma (PPP) was prepared by centrifuging the remaining blood at 2000×g for 15 minutes at room temperature allowing the centrifuge to coast to a stop without braking. The PRP was adjusted with PPP to a count of 2-3×10^8 platelets per mL. 400 uL of the PRP preparation and 50 uL of the compounds solution to be tested or saline were preincubated for 1 minute at 37° C. in an aggregometer (BioData, Horsham, Pa.). 50 uL of adenosine 5′ diphosphate (ADP) (50 um final concentration) was added to the cuvettes and the aggregation was monitored for 1 minute. All compounds are tested in duplicate. Results are calculated as follows: Percent of control=[(maximal OD minus initial OD of compound) divided by (maximal OD minus initial OD of control saline)]×100. […]

[3] = test system: collagen-induced platelet aggregation; assay: Ex vivo collagen-induced platelet aggregation in PRP of treated dogs; design: species or system dog; conditions: mean±SEM
Method: Peripheral venous blood was collected into citrated Vacutainer tubes (containing 0.3 ml of 3.8% sodium citrate solution) and platelet-rich plasma (PRP) was obtained by centrifugation (model Technospin R, Sorvall Instruments, DuPont, Wilmington, Del.) the blood at 266×g for 6 minutes at 24° C. Platelet-poor plasma (PPP) was obtained by further centrifugation at 2000×g for 10 minutes at 24° C. Samples were assayed on an aggregometer (model PAP-4, Bio/Data Corporation, Hatboro, Pa.) with PPP as the blank. The aggregations were performed by adding 50 μl of collagen ([…] final concentration) to 450 μl of PRP and measuring aggregation for 3 minutes. Blood samples used in platelet aggregation were collected at the following time periods: before treatment administration (baseline), immediately before anodal stimulation (at 30 minutes), at 60 minutes, then at 1-hour intervals to the end of experimentation. The blood samples at 60, 120 and 180 minutes were averaged (since the three blood samples yielded similar data) to obtain the steady-state platelet inhibition value for all comparisons except for saline and heparin (since no 120-minute sample was taken, 60 and 180 minute samples were used). Results are expressed as percent inhibition and represent steady-state conditions.

[4] = Bioassay for SCa plasma levels; assay type: in vivo; conditions: steady state, dog plasma, mean ± SEM
Method: SCa plasma levels were determined from the blood samples used for platelet aggregation. Plasma levels of SCa were measured using a modification of a bioassay method previously described in Salyers et al., Throm. Res., 1994, 75:409-417. The bioassay used plasma from treated dogs as the source of inhibitor to be tested in vitro against normal (naive) platelets from donor dogs. Briefly, PRP from non-treated dogs was added to wells containing plasma samples from treated dogs in a 96 well microtiter plate. ADP (20 μM) was added to the platelet suspension in each well to induce aggregation. Optical density at 405 nanometers was measured on all wells simultaneously in a platereader (Thermomax microplate reader, Molecular Devices, Menlo Park, Calif.). The results were quantified by comparison to a standard inhibition curve prepared in plasma using known amounts of SCa.

[5] = no SCa, ASA 2.8 mg/kg iv bolus, heparin 200 units/kg bolus then 1000 units/hour
[6] = no SCa, ASA 2.8 mg/kg iv bolus, heparin 200 units/kg bolus then 1000 units/hour, mean±SEM, n=6
[7] = no SCa, ASA 2.8 mg/kg iv bolus, heparin 200 units/kg bolus then 1000 units/hourly, mean ± SEM, n=6/group
[8] = no SCa, ASA 2.8 mg/kg iv bolus, heparin 200 units/kg bolus then 1000 units/hourly, n=6/group
[9] = 0.6 × SCa (0.52//0.23 μg/kg/min iv), mean±SEM, n=6
[10] = 0.6 × SCa (0.52//0.23 μg/kg/min iv)
[11] = 1 × SCa (0.87//0.39 μg/kg/min iv)

With `CC(=O)Oc1ccccc1C(=O)O` [ASA, acetylsalicyclic acid, reference compound] the “occurrence of thrombosis (occlusive thrombus) in dogs” value ([1]; no SCa, ASA 2.8 mg/kg iv bolus, 180 minutes of anodal current, n=6) was “did occur before the completion of the 180 minutes of current in all of the dogs”, the “effectiveness in the thrombosis model” value [1, 5] was “not effective” and the “time to zero flow” value [1, 6] was 64 ± 7 min. The “Mean CFV/Minute (×100)” value [1, 7] was 6 ± 2 CFV/Minute (×100) and the “Number of Dogs with CFV” value [1, 8] was 6/6.

Work on `C#C[C@H](CC(=O)OCC)NC(=O)CCC(=O)Nc1ccc(C(=N)N)cc1` [Example 1, Ethyl 3S-[[4-[[4-(aminoiminomethyl)phenyl]-amino]-1,4-dioxobutyl]amino]-4-pentynoate] yielded an IC50 [2] of 4600 nM.

With `C#C[C@H](CC(=O)O)NC(=O)CCC(=O)Nc1ccc(C(=N)N)cc1` [Example 2] the IC50 [2] was 70 nM, the “dogs with occlusive thrombus / LCCA thrombosis” value ([1]; 0.5 × SCa (0.425//0.20 μg/kg/min iv) alone or with ASA and/or heparin, 180 minutes of anodal current, n=6/group) was 4 of 6 and the “Mean CFV/Minute (×100)” value ([1]; 0.5 × SCa (0.425//0.20 μg/kg/min iv) alone or with ASA and/or heparin, mean ± SEM, n=6/group) was 5 ± 1 CFV/Minute (×100). For the same compound, the “Number of Dogs with CFV” value ([1]; 0.5 × SCa (0.425//0.20 μg/kg/min iv) alone or with ASA and/or heparin, n=6/group) was 6/6, the “time to zero flow” value ([1]; 0.5 × SCa (0.425//0.20 μg/kg/min iv), mean±SEM, n=6) was 130 ± 22 min and the “Mean CFV/Minute (×100)” value [1, 9] was 3 ± 1 CFV/Minute (×100). The “time to zero flow” value [1, 9] was 158 ± 15 min, the “Number of Dogs with CFV” value ([1]; 0.6 × SCa (0.52//0.23 μg/kg/min iv), n=6) was 4/6 and the “occurrence of thrombosis (occlusive thrombus) in dogs” value ([1]; 1 × SCa (0.87//0.39 μg/kg/min iv), 180 minutes of anodal current, n=6) was “did not occur in any of the dogs”. For the same compound, the “Mean CFV/Minute (×100)” value ([1]; 1 × SCa (0.87//0.39 μg/kg/min iv), during anodal stimulation of the LCCA, mean ± SEM, n=6) was 0.7 ± 0.7 CFV/Minute (×100), the “Number of Dogs with CFV” value ([1]; 1 × SCa (0.87//0.39 μg/kg/min iv), n=6, listed as SCa) was 1 of 6 and 1/6 and the “time to zero flow” value ([1]; 1 × SCa (0.87//0.39 μg/kg/min iv, loading 15 min // maintenance), 180 min = end of protocol with no occlusion, mean±SEM, n=6) was 180 ± 0 min. For the same compound, the “steady-state inhibition of platelet aggregation (Percent Inhibition)” value (“steady-state inhibition … (Percent Inhibition)” for short) ([3]; 0.5 × SCa (0.425//0.20 μg/kg/min iv) alone or with ASA 2.8 mg/kg bolus and/or heparin 200 units/kg + 1000 units/hour) was 70±4%, the “steady-state inhibition … (Percent Inhibition)” value [3, 10] was 83±3% and the “steady-state inhibition … (Percent Inhibition)” value [3, 11] was 92±5%. For the same compound, the “Plasma Level of SCa” value ([4]; 0.5 × SCa (0.425//0.20 μg/kg/min iv)) was 35 ± 8 ng/mL, the “Plasma Level of SCa” value [4, 10] was 48 ± 7 ng/mL and the “Plasma Level of SCa” value [4, 11] was 57 ± 4 ng/mL.

In the case of Heparin [reference compound], the “effectiveness in the thrombosis model” value [1, 5] is reported as “not effective”, the “time to zero flow” value [1, 6] is reported as 114 ± 16 min and the “Mean CFV/Minute (×100)” value [1, 7] is reported as 5 ± 1 CFV/Minute (×100). The “Number of Dogs with CFV” value [1, 8] was 6/6 and the “steady-state inhibition of platelet aggregation” value [3, 5] was 13±2%.
